Assays:
FKBP12 (FKBP) = FKBP12 (FKBP) (Homo sapiens, UniProt P62942); assay: Ki test procedure: inhibition of peptidyl-prolyl isomerase (rotamase) activity, chymotrypsin-coupled assay; type: biochemical; conditions: apparent Ki, substrate N-succinyl-Ala-Ala-Pro-Phe-p-nitroanilide
Text: As discussed above, the compounds of the present invention have an affinity, for the FK506 binding protein, particularly FKBP12. The inhibition of the prolyl peptidyl cis-trans isomerase activity of FKBP may be measured as an indicator of this affinity.
Inhibition of the peptidyl-prolyl isomerase (rotamase) activity of the inventive compounds can be evaluated by known methods described in the literature (Harding, et al., Nature, 1989, 341:758-760; Holt et al. J. Am. Chem. Soc., 115:9923-9938). The cis-trans isomerization of an alanine-proline bond in a model substrate, N-succinyl-Ala-Ala-Pro-Phe-p-nitroanilide, is monitored spectrophotometrically in a chymotrypsin-coupled assay, which releases paranitroanilide from the trans form of the substrate. The inhibition of this reaction caused by the addition of different concentrations of inhibitor is determined, and the data is analyzed as a change in first-order rate constant as a function of inhibitor concentration to yield the apparent Ki values. […]
The absorbance at 390 nm versus time is monitored for 90 seconds using a spectrophotometer and the rate constants are determined from the absorbance versus time data files. […]

[1] = system: chick dorsal root ganglia (sensory neurons); assay: Chick dorsal root ganglion cultures and neurite outgrowth; type: cell-based
Method: Dorsal root ganglia were dissected from chick embryos of ten day gestation. Whole ganglion explants were cultured on thin layer Matrigel-coated 12 well plates with Liebovitz L15 plus high glucose media supplemented with 2 mM glutamine and 10% fetal calf serum, and also containing 10 μM cytosine β-D arabinofuranoside (Ara C) at 37° C. in an environment containing 5% CO2. Twenty four hours later, the DRGs were treated with various immunophilin ligands. Forty-eight hours after drug treatment, the ganglia were visualized under phase contrast or Hoffman Modulation contrast with a Zeiss Axiovert inverted microscope. Photomicrographs of the explants were made, and neurite outgrowth was quantitated. Neurites longer than the DRG diameter were counted as positive, with total number of neurites quanitated per each experimental condition. Three to four DRGs are cultured per well, and each treatment was performed in duplicate.
The data for these experiments for representative compounds are presented in the “ED50” column of Table III.

Chain of FKBP12 (FKBP) (P62942 whole entry, species assumed): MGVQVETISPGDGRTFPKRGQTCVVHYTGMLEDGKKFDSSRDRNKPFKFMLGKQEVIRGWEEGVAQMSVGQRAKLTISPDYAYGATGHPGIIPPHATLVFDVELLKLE

| Compound | Ki (FKBP12 (FKBP)) [nM] | neurite outgrowth in sensory neurons (photomicrograph) ([1]; 1 pM) | neurite outgrowth in sensory neurons (photomicrograph) ([1]; 10 pM) | neurite outgrowth in sensory neurons (photomicrograph) ([1]; 100 pM) | neurite outgrowth in sensory neurons (photomicrograph) ([1]; 10 nM) |
| --- | --- | --- | --- | --- | --- |
| CCC(C)(C)C(=O)C(=O)N1CSCC1C(=O)OCCCc1ccccc1 [Compound 1, 3-phenyl-1-propyl(2S)-1-(3,3-dimethyl-1,2-dioxopentyl)-2-(4-thiazolidine)carboxylate] | 215 | promoting neurite outgrowth | promoting neurite outgrowth | promoting neurite outgrowth | – |
| CCC(C)(C)C(=O)C(=O)N1CSCC1C(=O)OCCCc1cccnc1 [Compound 2, 3-(3-pyridyl)-1-propyl(2S)-1-(3,3-dimethyl-1,2-dioxopentyl) -2-(4-thiazolidine) carboxylate] | 638 | – | promoting neurite outgrowth | promoting neurite outgrowth | promoting neurite outgrowth |

From patent US20030032635A1, “Heterocyclic esters and amides” (priority 1996, published 2003)
